Results on twelve compounds are retold here after patent publication US20250154134A1, “COMPOUND AS FAK INHIBITOR AND USE THEREOF” (WIGEN BIOMEDICINE TECHNOLOGY (SHANGHAI) CO., LTD., priority 2022, published 2025).

Broadly, the pIC50 is the negative decadic logarithm of the IC50, by convention in mol/L.

In test [1] the test system is PC3 cells. Briefly: PC3 cell proliferation, 2D activity assay (Cell Titer-Lumi, 72 h). In kind it is cell-based, human. The conditions noted are these: Homo sapiens, PC-3, read-out: 2D inhibitory activity against PC3 cells IC50.
The subject of test [2] is PC3 cells. As to the kind of experiment: Inhibition of PC3 cell low adsorption (adherent cell count, 4 h). It counts as cell-based. Particulars: Homo sapiens, PC-3; 4 h treatment; read-out: IC50 against PC3 cell low adsorption. The method, then:
PC3 cells were seeded at 8000 cells/well. 4 h after the cells were treated with a compound, the number of adherent cells was counted. The inhibition percentage and IC50 of the compound were calculated compared to the DMSO group.

For test [3], the system named is PC3 cells. Briefly: PC3 cell proliferation, 3D activity assay (3D culture, 14 days). It counts as cell-based, human. Particulars: Homo sapiens, PC-3, 336 h, read-out: 3D inhibitory activity against PC3 cells IC50.
A further test has as its target FAK recombinant protein (Homo sapiens (Human), UniProt Q05397). As to the kind of experiment: Inhibitory activity against FAK enzyme (HTRF, TK substrate). In kind it is biochemical. Here is the method:
A compound serially diluted with DMSO was mixed with a FAK recombinant protein. After the mixture was left to stand at room temperature for 10 min, a biotin-labeled TK substrate (TK) and ATP were added. […] The inhibition percentage and IC50 of the compound were calculated compared to the DMSO control group.

pIC50: −log10 of the molar value. Where only a bound is given, the exact number is not on record here.

Sequence of FAK recombinant protein (Q05397 whole entry): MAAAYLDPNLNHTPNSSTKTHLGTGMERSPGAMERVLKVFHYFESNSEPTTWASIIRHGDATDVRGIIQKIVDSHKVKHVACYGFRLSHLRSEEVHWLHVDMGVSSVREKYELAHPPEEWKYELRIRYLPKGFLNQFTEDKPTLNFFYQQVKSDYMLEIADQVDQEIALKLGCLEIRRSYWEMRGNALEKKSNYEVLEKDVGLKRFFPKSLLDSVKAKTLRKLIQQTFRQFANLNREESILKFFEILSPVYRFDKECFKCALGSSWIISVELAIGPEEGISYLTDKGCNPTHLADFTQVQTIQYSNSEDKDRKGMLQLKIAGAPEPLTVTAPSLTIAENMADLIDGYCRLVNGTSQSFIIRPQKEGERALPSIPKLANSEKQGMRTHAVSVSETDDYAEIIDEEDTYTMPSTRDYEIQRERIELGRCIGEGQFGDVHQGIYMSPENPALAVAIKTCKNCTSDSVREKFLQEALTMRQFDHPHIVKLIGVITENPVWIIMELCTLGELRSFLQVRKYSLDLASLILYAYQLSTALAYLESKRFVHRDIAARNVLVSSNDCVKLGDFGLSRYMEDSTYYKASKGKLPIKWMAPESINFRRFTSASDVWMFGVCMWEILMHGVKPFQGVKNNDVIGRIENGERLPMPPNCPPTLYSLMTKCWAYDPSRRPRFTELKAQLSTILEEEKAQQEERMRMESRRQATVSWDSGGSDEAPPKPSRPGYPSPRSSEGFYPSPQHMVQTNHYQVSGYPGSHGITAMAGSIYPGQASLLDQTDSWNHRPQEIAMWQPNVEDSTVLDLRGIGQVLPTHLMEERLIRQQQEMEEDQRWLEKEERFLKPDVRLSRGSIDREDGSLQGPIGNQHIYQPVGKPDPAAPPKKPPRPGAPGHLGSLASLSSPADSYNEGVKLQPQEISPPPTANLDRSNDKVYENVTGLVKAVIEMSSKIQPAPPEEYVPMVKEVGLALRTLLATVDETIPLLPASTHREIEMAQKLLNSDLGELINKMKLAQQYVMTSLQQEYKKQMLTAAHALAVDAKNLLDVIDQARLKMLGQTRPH

Regarding `CNC(=O)c1ccc(Nc2ncc(C(F)(F)F)c(Oc3cccc4c3C(=O)N(C)C43CC3)n2)cc1` [Compound 1, N-methyl-4-((4-((2′-methyl-3′-oxospiro[cyclopropane-1,1′-isoindolin]-4′-yl)oxy)-5-(trifluoromethyl)pyrimidin-2-yl)amino)benzamide], the pIC50 in the test on PC3 cells [1] is less than 5.70; with PC3 cells [2], 7.68; with PC3 cells [3], 7.97; at FAK recombinant protein, greater than 7.70.
Regarding `COc1cc(C(=O)NC2(C)CCN(C)CC2)ccc1Nc1ncc(C(F)(F)F)c(Oc2cccc3c2C(=O)N(C)C32CC2)n1` [Compound 6], the negative logarithm of the IC50 (pIC50) with PC3 cells [1] was less than 5.70; with PC3 cells [2] it was 8.57; with PC3 cells [3], greater than 8.30; on FAK recombinant protein it was greater than 7.70.
As to `COc1cc(C(=O)NC2CC3(CCN(C)CC3)C2)c(F)cc1Nc1ncc(C(F)(F)F)c(Oc2cccc3c2C(=O)N(C)C32CC2)n1` [Compound 8, 2-fluoro-5-methoxy-4-((4-((2′-methyl-3′-oxospiro[cyclopropane-1,1′-isoindolin]-4′-yl)oxy)-5-(trifluoromethyl)pyrimidin-2-yl)amino)-N-(7-methyl-7-azaspiro[3.5]nonan-2-yl)benzamide], the pIC50 in the test with PC3 cells [1] was less than 5.70; in the test with PC3 cells [2] it was 8.12; with PC3 cells [3], 9.02; on FAK recombinant protein, greater than 7.70.
On the same counts, the results for `COc1cc(C(=O)NC2COC3(CCN(C)C3)C2)ccc1Nc1ncc(C(F)(F)F)c(Oc2cccc3c2C(=O)N(C)C32CC2)n1` (stereo not drawn) [Compound 27] are less than 5.70, 7.93, greater than 8.30 and greater than 7.70.
As for `CN1C(=O)c2c(Oc3nc(Nc4ccc5c(c4)CC(=O)N5)ncc3C(F)(F)F)cccc2C12CC2` [Compound 69], the negative logarithm of the IC50 (pIC50) is less than 5.70 with PC3 cells [1], 7.87 in the test on PC3 cells [2], 8.07 in the test on PC3 cells [3] and greater than 7.70 on FAK recombinant protein.
On the same counts, the results for `CN1C(=O)c2c(Oc3nc(Nc4ccc5c(c4)CCNC5=O)ncc3C(F)(F)F)cccc2C12CC2` [Compound 71] are less than 5.70, 7.78, 8.29 and greater than 7.70.
As to `COc1cc(N2CCOCC2)ccc1Nc1ncc(C(F)(F)F)c(Oc2cccc3c2C(=O)N(C)C32CC2)n1` [Compound 77], the pIC50 with PC3 cells [1] is less than 5.00; in the test on PC3 cells [2], 7.56; with PC3 cells [3], 8.31; at FAK recombinant protein, greater than 7.70.
`COc1cc(CN2CCN(C)CC2)ccc1Nc1ncc(C(F)(F)F)c(Oc2cccc3c2C(=O)N(C)C32CC2)n1` [Compound 82]: the negative-log IC50 (pIC50) is less than 5.70 with PC3 cells [1], 8.20 in the test on PC3 cells [2], 7.30 to 8.30 in the test on PC3 cells [3] and greater than 7.70 on FAK recombinant protein.
In the case of `CN1Cc2cc(Nc3ncc(C(F)(F)F)c(Oc4cccc5c4C(=O)N(C)C54CC4)n3)cc3c2C(CCC3)C1` (stereo not drawn) [Compound 88], the pIC50 with PC3 cells [1] is less than 5.00; in the test with PC3 cells [2] it was 7.37; in the test with PC3 cells [3], 8.75; at FAK recombinant protein it was greater than 7.70.
Take `CN1Cc2cc(Nc3ncc(C(F)(F)F)c(Oc4cccc5c4C(=O)N(C)C54CC4)n3)cc3c2C(CCO3)C1` (stereo not drawn) [Compound 89]: the pIC50 in the test on PC3 cells [1] is less than 5.00; in the test with PC3 cells [2], 7.44; in the test with PC3 cells [3] it was 7.30 to 8.30; on FAK recombinant protein, greater than 7.70.
Regarding `Cc1cc(Nc2ncc(C(F)(F)F)c(Oc3cccc4c3C(=O)N(C)C43CC3)n2)n(C(C)C)n1` [Compound 91], the pIC50 in the test on PC3 cells [1] was less than 5.70; with PC3 cells [2], 7.44; with PC3 cells [3], 7.30 to 8.30; on FAK recombinant protein, greater than 7.70.
Take `CN1C(=O)c2c(Oc3nc(Nc4cc5n(n4)CCC5)ncc3C(F)(F)F)cccc2C12CC2` [Compound 92, 4′-((2-((5,6-dihydro-4H-pyrrolo[1,2-b]pyrazol-2-yl)amino)-5-(trifluoromethyl)pyrimidin-4-yl)oxy)-2′-methylspiro[cyclopropane-1,1′-isoindolin]-3′-one]: the pIC50 was less than 5.70 in the test with PC3 cells [1], 7.21 in the test with PC3 cells [2], 7.30 to 8.30 with PC3 cells [3] and greater than 7.70 on FAK recombinant protein.
